Results on one molecule are retold here after patent US11179348B2, “Combination comprising pterostilbene for the treatment of cancer” (FUNDACIÓN UNIVERSIDAD CATÓLICA DE VALENCIA SAN VICENTE …, priority 2015, dated 2021).

The structures appear in SMILES notation. Marks after values point to notes of the source that are not given here.

For assay [1], the system named is SK-OV-3 epithelial ovarian carcinoma. The experiment in a line: In vivo growth of SK-OV-3 ovarian cancer xenografts. Details: species or system human. The settings on record: SK-OV-3, day 49.
The next assay deals with MeWo melanoma cells. Kind of assay: Nrf2- and redox state-related enzyme activities and metabolites in MeWo cells growing in vivo. The conditions noted are these: in vivo +Pter, day 35. Details: species or system human. As to the method:
Transfection of the Red Fluorescence Protein.
First the pDsRed-2 vector (Clontech Laboratories Inc., Palo Alto, Calif.) was used, as previously described for A375 melanoma cells (Mena, S. et al. J Transl Med 10, 8 (2012)), to engineer A2058, MeWo and MelJuso melanoma clones stably expressing the RFP. Isolation of A2058-RFP, MeWo-RFP or MelJuso-RFP cells from the growing xenografts was performed by laser microdissection and high-performance cell sorting as previously described in detail (Mena, S. et al. J Transl Med 10, 8 (2012)).
To measure enzyme activity, isolated tumor cells were homogenized in 0.1 M phosphate buffer (pH 7.2) at 4° C. GCL and GSS activities were measured as described previously (Obrador, E. et al. Hepatology 35, 74-81 (2002)). GPX (selenium dependent) activity was measured as described by Flohé and Gunzler (Flohe, L. & Gunzler, W. A. Methods Enzymol 105, 114-121 (1984)) using H2O2 as a substrate. GSR activity was determined as described by Akerboom and Sies (Akerboom, T. P. et al, Bull Eur Physiopathol Respir 17 Suppl, 221-227 (1981)). GGT activity was measured as described previously (Obrador, E. et al. Hepatology 35, 74-81 (2002)). GST activity was measured using an assay kit from Sigma. TXNRD activity, defined by the concentration of sodium-lipoate (disulfide) reduced to dehydrolipoate (dithiol) per milligram protein, was measured as previously described (Javvadi, P. et al. Cancer Res 70, 1941-1950 (2010)). SOD activity was measured as described by Flohé and Otting (Flohe, L. & Otting, F. Methods Enzymol 105, 93-104 (1984).) using 2 mM cyanide in the assay medium to distinguish mangano-type enzyme (SOD2) from the cuprozinc type (SOD1). CAT activity was analyzed as described by Aebi (Aebi, H. Methods Enzymol 105, 121-126 (1984)). NOX activity was measured by chemiluminescence following the methodology of Wind et al. (Wind, S. et al. Comparative pharmacology of chemically distinct NADPH oxidase inhibitors. Br J Pharmacol 161, 885-898 (2010)). Protein concentration was determined with the Pierce BCA protein assay (Fisher Scientific, Waltham, Mass.).
Measurement of H2O2 and O2^⋅−.
Quantitative measurement of H2O2 and flow cytometry determination of O2^⋅− generation were performed as previously described (Benlloch, M. et al. J Biol Chem 281, 69-79 (2006)).
GSH, GSSG, NADP^+ and NADPH Determination.
GSH and GSSG were determined, following procedures previously described (Obrador, E. et al. PLoS One 9, e96466 (2014)), by LC/MS using the same equipment described above for pterostilbene determination. Cell processing was performed according to published methodology, where rapid N-ethylmaleimide derivatization was used to prevent GSH auto-oxidation (Asensi, M. et al. Anal Biochem 217, 323-328 (1994)). NADP^+ and NADPH were quantitated using an assay kit from Sigma (St. Louis, Mo.).

In the case of `COc1cc(/C=C/c2ccc(O)cc2)cc(OC)c1` [Pter, trans-3,5-dimethoxy-4′-hydroxystilbene], the Tumor vol. in assay [1] is reported as 214 ± 83* mm^3. In the assay on MeWo melanoma cells, the CAT was 1.6 ± 0.4 mU/10^6 cells, the G6PDH is recorded as 266 ± 39 mU/10^6 cells, the GCL is on record as 35 ± 12 mU/10^6 cells and the GGT is on record as 16.0 ± 2.4 mU/10^6 cells. Besides, in the assay with MeWo melanoma cells, the GPX was 2.8 ± 1.0 mU/10^6 cells, the GSH is 7.3 ± 1.7 nmol/10^6 cells, the GSH/GSSG is on record as 73 ± 11 and the GSR worked out at 4.9 ± 1.2 mU/10^6 cells. In the assay with MeWo melanoma cells, the GSS is listed as 7.4 ± 1.6 mU/10^6 cells, the GSSG came to 0.1 ± 0.03 nmol/10^6 cells, the GST amounted to 6.5 ± 1.3 mU/10^6 cells and the H2O2 stood at 0.7 ± 0.2 nmol/10^6 cells × min. In the assay with MeWo melanoma cells, the IDH is recorded as 1.5 ± 0.4 U/10^6 cells, the ME was found to be 32 ± 11 mU/10^6 cells, the NADPH was 0.05 ± 0.002 nmol/mg prot and the “NADPH/NADP^+” value stood at 1.2 ± 0.2. For the same molecule, in the assay on MeWo melanoma cells, the “NADP^+” value is 0.04 ± 0.01 nmol/mg prot; the NOX was found to be 132 ± 25 R.L.U./10^6 cells; the “O2^−” value was 3.5 ± 0.7 ΔFL1, a.u; the SOD1 came to 0.5 ± 0.2 U/10^6 cells. In the assay with MeWo melanoma cells, the SOD2 was 0.1 ± 0.05 U/10^6 cells, the TXN was found to be 0.8 ± 0.2 μg/10^6 cells and the TXNRD came out at 0.9 ± 0.2 U/10^6 cells.
